Laboratory results published in patent US20210352899A1, “COMPOSITIONS COMPRISING PYRIDINE CARBOXYLATE HERBICIDES AND FATTY ACID AND LIPID SYNTHESIS INHIBITOR HERBICIDES” (Corteva Agriscience LLC, priority 2018, published 2021).

Columns and labels:
Type in all cases: in vivo
[1] = test system: Salsola kali (Russian thistle); assay: Greenhouse postemergence herbicidal effect, SASKR
Text: (§1) Seeds of the desired test plant species were planted in a 90:10% v/v (volume/volume) mixture of PRO-MIX® BX (Premier Tech Horticulture, Quakertown, Pa., USA) and PROFILE® GREENS GRADE™ (Profile Products LLC, Buffalo Grove, Ill., USA) planting mixture, which typically has a pH of 5.2 to 6.2 and an organic matter content of at least 50 percent, in plastic pots with a surface area of 103.2 square centimeters (cm^2). In some aspects, to help ensure good germination and healthy plants, a fungicide treatment and/or other chemical or physical treatment was applied. The plants were grown for 7-36 days (d) in a greenhouse with an approximate 14-hour (h) photoperiod which was maintained at about 23° C. during the day and 22° C. during the night. Nutrients and water were added on a regular basis and supplemental lighting was provided with overhead metal halide 1000-Watt lamps as necessary. The plants were employed for testing when they reached the second or third true leaf stage.
(§2) Emulsifiable concentrates of each pyridine carboxylate herbicide (Compound A or Compound B) were prepared at 100 grams acid equivalent per liter (g ae/L). The emulsifiable concentrates also included a safener, cloquintocet-mexyl, at 120 grams active ingredient per liter (g ai/L). An aliquot of each emulsifiable concentrate was placed in a 25 mL glass vial and diluted with an aqueous mixture of 1.25% (v/v) ACTIROB® B esterified rapeseed oil (Bayer Crop Science, Research Triangle Park, N.C., USA) or MSO® Concentrate with LECI-TECH® methylated soybean oil (Loveland Products, Loveland, Colo., USA) to obtain concentrated stock solutions at the highest application rate for each herbicide, based upon a 12 milliliter (mL) application volume at a rate of 187 liters per hectare (L/ha). The concentrated stock solutions were further diluted with an aqueous mixture of 1.25% v/v ACTIROB® B or MSO® Concentrate with LECI-TECH® to obtain stock solutions at reduced application rates for each herbicide. Spray solutions of the herbicide combinations (Compound A or Compound B plus the FA/LSI herbicide) were prepared by adding weighed amounts or aliquots of the FA/LSI herbicide to the stock solutions of Compound A or Compound B to form 12-mL spray solutions in two-way combinations.
(§3) The spray solutions were applied to the plant material with an overhead Mandel track sprayer equipped with 8002E nozzles calibrated to deliver 187 L/ha over an application area of 0.503 square meters (m^2) at a spray height of 18 inches (43 centimeters (cm)) above the average plant canopy. Control plants were sprayed in the same manner with the solvent blank. All pyridine carboxylate herbicide (component a) application rates are given as “g ae/ha” and all FA/LSI herbicide (component b) application rates are given as “g ai/ha.”
(§4) The treated plants and control plants were placed in a greenhouse as described above and watered by sub-irrigation to prevent wash-off of the test compounds. After 20-22 d, the condition of the test plants as compared with that of the control plants was determined visually and scored on a scale of 0 to 100 percent where 0 corresponds to no injury and 100 corresponds to complete kill.

[2] = test system: Matricaria chamomilla (wild chamomile); assay: Greenhouse postemergence herbicidal effect, MATCH
Text: as §1, §2, §3, §4

[3] = test system: Kochia scoparia (kochia); assay: Greenhouse postemergence herbicidal effect, KCHSC
Text: as §1, §2, §3, §4

[4] = test system: Chenopodium album L. (common lambsquarters); assay: Greenhouse postemergence herbicidal effect, CHEAL
Text: as §1, §2, §3, §4

[5] = test system: Amaranthus retroflexus (pigweed); assay: Greenhouse postemergence herbicidal effect, AMARE
Text: as §1, §2, §3, §4

[6] = test system: Polygonum convolvulus (wild buckwheat); assay: Greenhouse postemergence herbicidal effect, POLCO
Text: as §1, §2, §3, §4

[7] = test system: Sinapis arvensis (wild mustard); assay: Greenhouse postemergence herbicidal effect, SINAR
Text: as §1, §2, §3, §4

[8] = test system: Brassica napus (spring rape); assay: Greenhouse postemergence herbicidal effect, BRSNN
Text: as §1, §2, §3, §4

[9] = test system: Cirsium arvense (Canada thistle); assay: Greenhouse postemergence herbicidal effect, CIRAR
Text: as §1, §2, §3, §4

[10] = test system: Stellaria media (chickweed); assay: Greenhouse postemergence herbicidal effect, STEME
Text: as §1
(§5) Emulsifiable concentrates of each pyridine carboxylate herbicide (Compound A or Compound B) were prepared at 100 grams acid equivalent per liter (g ae/L). The emulsifiable concentrates also included a safener, cloquintocet-mexyl, at 120 grams active ingredient per liter (g ai/L). […]
as §4

[11] = test system: Triticum aestivum (spring wheat); assay: Greenhouse postemergence crop phytotoxicity, TRZAS
Text: as §1, §2, §3, §4

[12] = test system: Viola tricolor (wild pansy); assay: Greenhouse postemergence herbicidal effect, VIOTR
Text: as §1, §5, §4

[13] = test system: Setaria faberi (giant foxtail); assay: Greenhouse postemergence herbicidal effect, SETFA
Text: as §1, §5, §4

[14] = test system: Digitaria sanguinalis (large crabgrass); assay: Greenhouse postemergence herbicidal effect, DIGSA
Text: as §1, §5, §4

[15] = test system: Lolium multiflorum (Italian ryegrass); assay: Greenhouse postemergence herbicidal effect, LOLMU
Text: as §1, §5, §4

[16] = test system: Glycine max (soybean); assay: Greenhouse postemergence herbicidal effect, GLXMA
Text: as §1, §5, §4

[17] = test system: Hordeum vulgare (spring barley); assay: Greenhouse postemergence crop phytotoxicity, HORVS
Text: as §1, §2, §3, §4

[18] = test system: Echinochloa crus-galli (barnyard grass); assay: Greenhouse postemergence herbicidal effect, ECHCG
Text: as §1, §5, §4

[19] = Compound A 0, Benfuresate 150 g/ha
[20] = Compound A 0, Esprocarb 420 g/ha
[21] = Compound A 0, Thiobencarb 1120 g/ha
[22] = Compound A 7.5 g/ha, Prosulfocarb 0
[23] = Compound A 10 g/ha, Prosulfocarb 0
[24] = Compound A 7.5 g/ha, Benfuresate 0
[25] = Compound A 7.5 g/ha, Esprocarb 0
[26] = Compound A 7.5 g/ha, Thiobencarb 0
[27] = Compound A 10 g/ha, Benfuresate 0
[28] = Compound A 10 g/ha, Esprocarb 0
[29] = Compound A 10 g/ha, Thiobencarb 0
[30] = Compound A 0, Prosulfocarb 250 g/ha

## CCS(=O)(=O)Oc1ccc2c(c1)C(C)(C)CO2 [Benfuresate, benfuresate, reference compound]
[1]; [19]
  % visual injury, Obs: 0%
[2]; [19]
  % visual injury, Obs: 0%
[3]; [19]
  % visual injury, Obs: 0%
[4]; [19]
  % visual injury, Obs: 0%
[5]; [19]
  % visual injury, Obs: 10%
[6]; [19]
  % visual injury, Obs: 0%
[7]; [19]
  % visual injury, Obs: 0%
[8]; [19]
  % visual injury, Obs: 5%

## CCN(C(=O)SCc1ccccc1)C(C)C(C)C (stereo not drawn) [Esprocarb, esprocarb, reference compound]
[1]; [20]
  % visual injury, Obs: 0%
[2]; [20]
  % visual injury, Obs: 5%
[9]; [20]
  % visual injury, Obs: 0%
[3]; [20]
  % visual injury, Obs: 0%
[4]; [20]
  % visual injury, Obs: 0%
[5]; [20]
  % visual injury, Obs: 15%
[7]; [20]
  % visual injury, Obs: 0%
[8]; [20]
  % visual injury, Obs: 0%

## CCN(CC)C(=O)SCc1ccc(Cl)cc1 [Thiobencarb, thiobencarb, reference compound]
[1]; [21]
  % visual injury, Obs: 0%
[2]; [21]
  % visual injury, Obs: 15%
[3]; [21]
  % visual injury, Obs: 0%
[4]; [21]
  % visual injury, Obs: 0%
[5]; [21]
  % visual injury, Obs: 10%
[6]; [21]
  % visual injury, Obs: 0%
[7]; [21]
  % visual injury, Obs: 5%
[8]; [21]
  % visual injury, Obs: 10%

## N#CCOC(=O)c1nc(-c2ccc3cc[nH]c3c2F)c(F)c(N)c1Cl [Compound A, cyanomethyl 4-amino-3-chloro-5-fluoro-6-(7-fluoro-1H-indol-6-yl)pyridine-2-carboxylate]
[10]; [22]
  % visual injury, Obs: 100%
[10]; [23]
  % visual injury, Obs: 97%
[1]; [24]
  % visual injury, Obs: 45%
[1]; [25]
  % visual injury, Obs: 38%
[1]; [26]
  % visual injury, Obs: 45%
[1]; [27]
  % visual injury, Obs: 60%
[1]; [28]
  % visual injury, Obs: 63%
[1]; [29]
  % visual injury, Obs: 60%
[11]; [24]
  % visual injury, Obs: 0%
[11]; [25]
  % visual injury, Obs: 0%
[11]; [26]
  % visual injury, Obs: 0%
[11]; [27]
  % visual injury, Obs: 0%
[11]; [28]
  % visual injury, Obs: 0%
[11]; [29]
  % visual injury, Obs: 0%
[12]; [22]
  % visual injury, Obs: 10%
[12]; [23]
  % visual injury, Obs: 18%
[2]; [24]
  % visual injury, Obs: 13%
[2]; [25]
  % visual injury, Obs: 0%
[2]; [26]
  % visual injury, Obs: 13%
[2]; [27]
  % visual injury, Obs: 15%
[2]; [28]
  % visual injury, Obs: 33%
[2]; [29]
  % visual injury, Obs: 15%
[9]; [25]
  % visual injury, Obs: 10%
[9]; [22]
  % visual injury, Obs: 23%
[9]; [28]
  % visual injury, Obs: 23%
[9]; [23]
  % visual injury, Obs: 20%
[13]; [22]
  % visual injury, Obs: 70%
[13]; [23]
  % visual injury, Obs: 70%
[3]; [24]
  % visual injury, Obs: 50%
[3]; [25]
  % visual injury, Obs: 50%
[3]; [22]
  % visual injury, Obs: 60%
[3]; [26]
  % visual injury, Obs: 50%
[3]; [27]
  % visual injury, Obs: 58%
[3]; [28]
  % visual injury, Obs: 55%
[3]; [23]
  % visual injury, Obs: 65%
[3]; [29]
  % visual injury, Obs: 58%
[4]; [24]
  % visual injury, Obs: 70%
[4]; [25]
  % visual injury, Obs: 60%
[4]; [22]
  % visual injury, Obs: 97%
[4]; [26]
  % visual injury, Obs: 70%
[4]; [27]
  % visual injury, Obs: 83%
[4]; [28]
  % visual injury, Obs: 90%
[4]; [23]
  % visual injury, Obs: 93%
[4]; [29]
  % visual injury, Obs: 83%
[5]; [24]
  % visual injury, Obs: 100%
[5]; [25]
  % visual injury, Obs: 70%
[5]; [26]
  % visual injury, Obs: 100%
[5]; [27]
  % visual injury, Obs: 100%
[5]; [28]
  % visual injury, Obs: 98%
[5]; [29]
  % visual injury, Obs: 100%
[14]; [22]
  % visual injury, Obs: 45%
[14]; [23]
  % visual injury, Obs: 25%
[15]; [22]
  % visual injury, Obs: 0%
[15]; [23]
  % visual injury, Obs: 0%
[6]; [24]
  % visual injury, Obs: 70%
[6]; [22]
  % visual injury, Obs: 75%
[6]; [26]
  % visual injury, Obs: 70%
[6]; [27]
  % visual injury, Obs: 78%
[6]; [23]
  % visual injury, Obs: 70%
[6]; [29]
  % visual injury, Obs: 78%
[16]; [22]
  % visual injury, Obs: 93%
[16]; [23]
  % visual injury, Obs: 95%
[7]; [24]
  % visual injury, Obs: 88%
[7]; [25]
  % visual injury, Obs: 85%
[7]; [26]
  % visual injury, Obs: 88%
[7]; [27]
  % visual injury, Obs: 92%
[7]; [28]
  % visual injury, Obs: 90%
[7]; [29]
  % visual injury, Obs: 92%
[17]; [24]
  % visual injury, Obs: 8%
[17]; [25]
  % visual injury, Obs: 0%
[17]; [26]
  % visual injury, Obs: 8%
[17]; [27]
  % visual injury, Obs: 0%
[17]; [28]
  % visual injury, Obs: 0%
[17]; [29]
  % visual injury, Obs: 0%
[18]; [22]
  % visual injury, Obs: 73%
[18]; [23]
  % visual injury, Obs: 78%
[8]; [24]
  % visual injury, Obs: 55%
[8]; [25]
  % visual injury, Obs: 55%
[8]; [22]
  % visual injury, Obs: 73%
[8]; [26]
  % visual injury, Obs: 55%
[8]; [27]
  % visual injury, Obs: 60%
[8]; [28]
  % visual injury, Obs: 70%
[8]; [23]
  % visual injury, Obs: 83%
[8]; [29]
  % visual injury, Obs: 60%

## CCCN(CCC)C(=O)SCc1ccccc1 [Prosulfocarb, prosulfocarb, reference compound]
[10]; [30]
  % visual injury, Obs: 0%
[12]; [30]
  % visual injury, Obs: 0%
[9]; [30]
  % visual injury, Obs: 0%
[13]; [30]
  % visual injury, Obs: 0%
[3]; [30]
  % visual injury, Obs: 0%
[4]; [30]
  % visual injury, Obs: 0%
[14]; [30]
  % visual injury, Obs: 0%
[15]; [30]
  % visual injury, Obs: 0%
[6]; [30]
  % visual injury, Obs: 0%
[16]; [30]
  % visual injury, Obs: 0%
[18]; [30]
  % visual injury, Obs: 0%
[8]; [30]
  % visual injury, Obs: 0%
